# From patent US4154932A (priority 1977, dated 1979)
# Read-outs that look alike come from different tables or passages of the source.
# Experiments:
# [1] = system: phenylquinone induced writhings; test: animal or person; conditions: for ED50: Mus musculus
# Protocol: In vivo testing was conducted on many of the compounds of the present invention.
# [2] = system: Straub Tail induced by oxymorphone; test: Antagonism of oxymorphone-induced Straub Tail (antagonist activity); type: in vivo, mouse; conditions: for ED50: Mus musculus; for Oxymorphone-Induced Straub Tail po/sc: ratio of ED50 po/sc
# Protocol: ^2 Antagonism of Straub Tail induced by oxymorphone (2 mg/kg, s.c.) i
# Rat Writhing = Rat Writhing (analgetic activity); type: in vivo; conditions: Table 2; for ED50: Rattus norvegicus; for Rat Writhing po/sc: ratio of ED50 po/sc
# Rat Vocalization = Rat Vocalization (analgetic activity); type: in vivo; conditions: Table 2; for ED50: Rattus norvegicus; for Rat Vocalization po/sc: ratio of ED50 po/sc
# [3] = system: Morphine Antagonism Rat Tail Flick; test: Morphine antagonism, Rat Tail Flick (antagonist activity); type: in vivo; conditions: Table 3; for ED50: Rattus norvegicus; for Morphine Antagonism Rat Tail Flick po/sc: ratio of ED50 po/sc
# Cough Response = test: animal or person; type: in vivo, dog; conditions: for ED50: Canis lupus familiaris
# Source text: Comparative Antitussive Effects of (-)-XI, Butorphanol and
# Morphine Sulfate in the Unanesthetized Dog
# [4] = system: withdrawal jumping (abstinence); test: Primary physical dependence test in mice (withdrawal jumping on naloxone challenge); conditions: repeated sc injections for two days
# Protocol: (§1) Buprenorphine and (-)XI were tested for physical dependence liability in mice. […] The compounds were then tested as substitutes for morphine in withdrawn morphine-dependent mice.
# [5] = system: withdrawn morphine-dependent mice; test: Substitution for morphine in withdrawn morphine-dependent mice; conditions: 3 to 54 mg/kg sc
# Protocol: as §1
# [6] = Physical dependence liability in man (predicted from mouse models); conditions: prediction from the mouse test model
# Protocol: as §1
# [7] = Analgetic activity, overall comparison of Table 2; type: in vivo
# [8] = system: opioids, oxymorphone and morphine; test: Antagonist activity, overall comparison of Table 3; type: in vivo
# [9] = sc, read-out: Agonist Activity, Phenylquinone Writhing ED50
# [10] = sc, mice, Table 1, oxymorphone 2 mg/kg, s.c., read-out: Antagonist Activity, Oxymorphone Straub Tail ED50
# [11] = central, read-out: Analgetic activity ED50, Intraventricular
# [12] = po, read-out: Analgetic activity ED50, Mouse Writhing po
# [13] = sc, read-out: Analgetic activity ED50, Mouse Writhing sc
# [14] = po, Table 3, read-out: Antagonist activity ED50, Oxymorphone-Induced Straub Tail po
# [15] = sc, Table 3, read-out: Antagonist activity ED50, Oxymorphone-Induced Straub Tail sc
# [16] = po, read-out: Analgetic activity ED50, Rat Writhing po
# [17] = sc, read-out: Analgetic activity ED50, Rat Writhing sc
# [18] = po, read-out: Analgetic activity ED50, Rat Vocalization po
# [19] = sc, read-out: Analgetic activity ED50, Rat Vocalization sc
# [20] = po, read-out: Antagonist activity ED50, Morphine Antagonism Rat Tail Flick po
# [21] = sc, read-out: Antagonist activity ED50, Morphine Antagonism Rat Tail Flick sc
# [22] = po, unanesthetized dog, read-out: Oral antitussive ED50
# [23] = sc, unanesthetized dog, read-out: Antitussive ED50
smiles,measurement,setting,value
"COc1ccc2c(c1)[C@]13CCN(C)[C@H](C2)[C@@H]1CCOC3 (racemic) [(±)-V, 3-Methoxy-17-methyl-6-oxamorphinan]",ED50,[1]; [9],1.32 mg/kg
same,ED50,[2]; [10],> 20 mg/kg
"COc1ccc2c(c1)[C@]13CCN(CC4CC4)[C@H](C2)[C@@H]1CCOC3 (racemic) [(±)-X, 17-Cyclopropylmethyl-3-methoxy-6-oxamorphinan]",ED50,[1]; [9],0.38 mg/kg
same,ED50,[2]; [10],10 mg/kg
"Oc1ccc2c(c1)[C@]13CCN(CC4CC4)[C@H](C2)[C@@H]1CCOC3 [(-)-XI, (-)-17-Cyclopropylmethyl-3-hydroxy-6-oxamorphinan]",ED50,[1]; [11],0.0012 mg/kg
same,ED50,[1]; [12],0.3 mg/kg
same,ED50,[1]; [9],0.028 mg/kg
same,ED50,[1]; [13],0.028 mg/kg
same,Mouse Writhing po/sc,"[1]; mouse, in vivo",11
same,sc/I. Vent.,"[1]; mouse, in vivo, sc",23
same,ED50,[2]; [10],0.44 mg/kg
same,ED50,[2]; [14],14 mg/kg
same,ED50,[2]; [15],0.44 mg/kg
same,Oxymorphone-Induced Straub Tail po/sc,[2]; Table 3,32
same,ED50,Rat Writhing; [16],0.22 mg/kg
same,ED50,Rat Writhing; [17],0.021 mg/kg
same,Rat Writhing po/sc,Rat Writhing,11
same,ED50,Rat Vocalization; [18],0.11 mg/kg
same,ED50,Rat Vocalization; [19],0.006 mg/kg
same,Rat Vocalization po/sc,Rat Vocalization,18
same,ED50,[3]; [20],~3 mg/kg
same,ED50,[3]; [21],0.26 mg/kg
same,Morphine Antagonism Rat Tail Flick po/sc,[3],12
same,Percent Inhibition of Cough Response,"Cough Response; 0.005 mg/kg sc, 15 min",7%
same,Percent Inhibition of Cough Response,"Cough Response; 0.005 mg/kg sc, 30 min",52%
same,Percent Inhibition of Cough Response,"Cough Response; 0.005 mg/kg sc, 60 min",15%
same,Percent Inhibition of Cough Response,"Cough Response; 0.005 mg/kg sc, 120 min",41%
same,Percent Inhibition of Cough Response,"Cough Response; 0.005 mg/kg sc, 180 min",41%
same,Percent Inhibition of Cough Response,"Cough Response; 0.005 mg/kg sc, 240 min",37%
same,Percent Inhibition of Cough Response,"Cough Response; 0.005 mg/kg sc, 300 min",33%
same,Percent Inhibition of Cough Response,"Cough Response; 0.01 mg/kg sc, 15 min",38%
same,Percent Inhibition of Cough Response,"Cough Response; 0.01 mg/kg sc, 30 min",68%
same,Percent Inhibition of Cough Response,"Cough Response; 0.01 mg/kg sc, 60 min",86%
same,Percent Inhibition of Cough Response,"Cough Response; 0.01 mg/kg sc, 120 min",98%
same,Percent Inhibition of Cough Response,"Cough Response; 0.01 mg/kg sc, 180 min",62%
same,Percent Inhibition of Cough Response,"Cough Response; 0.01 mg/kg sc, 240 min",50%
same,Percent Inhibition of Cough Response,"Cough Response; 0.01 mg/kg sc, 300 min",24%
same,Percent Inhibition of Cough Response,"Cough Response; 0.02 mg/kg sc, 15 min",90%
same,Percent Inhibition of Cough Response,"Cough Response; 0.02 mg/kg sc, 30 min",99%
same,Percent Inhibition of Cough Response,"Cough Response; 0.02 mg/kg sc, 60 min",88%
same,Percent Inhibition of Cough Response,"Cough Response; 0.02 mg/kg sc, 120 min",70%
same,Percent Inhibition of Cough Response,"Cough Response; 0.02 mg/kg sc, 180 min",67%
same,Percent Inhibition of Cough Response,"Cough Response; 0.02 mg/kg sc, 240 min",67%
same,Percent Inhibition of Cough Response,"Cough Response; 0.02 mg/kg sc, 300 min",64%
same,Percent Inhibition of Cough Response,"Cough Response; 0.05 mg/kg sc, 15 min",100%
same,Percent Inhibition of Cough Response,"Cough Response; 0.05 mg/kg sc, 30 min",100%
same,Percent Inhibition of Cough Response,"Cough Response; 0.05 mg/kg sc, 60 min",100%
same,Percent Inhibition of Cough Response,"Cough Response; 0.05 mg/kg sc, 120 min",100%
same,Percent Inhibition of Cough Response,"Cough Response; 0.05 mg/kg sc, 180 min",100%
same,Percent Inhibition of Cough Response,"Cough Response; 0.05 mg/kg sc, 240 min",100%
same,Percent Inhibition of Cough Response,"Cough Response; 0.05 mg/kg sc, 300 min",100%
same,ED50,Cough Response; [22],0.04 mg/kg
same,ED50,Cough Response; [23],0.006 mg/kg
same,Antitussive potency relative to butorphanol,"Cough Response; dog, in vivo, po",8 times
same,Antitussive potency relative to morphine sulfate,"Cough Response; dog, in vivo, po",16 times
same,Antitussive potency relative to butorphanol,"Cough Response; dog, in vivo, sc",1.7 times
same,Antitussive potency relative to morphine sulfate,"Cough Response; dog, in vivo, sc",approximately 7 times
same,Duration of antitussive activity,"Cough Response; dog, in vivo, sc",significantly longer duration of activity than either butorphanol or morphine sulfate
same,Antitussive activity,"Cough Response; subcutaneous, unanesthetized dog",potent antitussive agent
same,Withdrawal jumping (primary physical dependence),[4],did not exhibit withdrawal jumping (abstinence)
same,Substitution for morphine,[5],no evidence of substitution for morphine
same,Predicted physical dependence liability in man,[6],nil or of a low order
same,"Oral/parenteral analgetic potency ratio, comparison",[7],comparable to buprenorphine and approximately ten times better than butorphanol
same,"Oral analgetic potency, comparison",[7]; oral,markedly better than butorphanol and equivalent to buprenorphine
same,"Oral/parenteral potency ratio relative to antagonist activity, comparison",[8],superior to butorphanol and about equal to that of buprenorphine
same,Antagonist potency relative to butorphanol,[8]; blocking the effects of oxymorphone and morphine,about twice as potent as butorphanol
Oc1ccc2c(c1)[C@@]13CCCC[C@@]1(O)[C@@H](C2)N(CC1CCC1)CC3 [Butorphanol],ED50,[1]; [11],0.0019 mg/kg
same,ED50,[1]; [12],5.1 mg/kg
same,ED50,[1]; [13],0.045 mg/kg
same,Blood-brain barrier penetration,"[1]; mouse, in vivo",penetrate the blood-brain barrier more readily than either morphine or buprenorphine and to about the same degree as each other
same,Mouse Writhing po/sc,"[1]; ratio of ED50 po/sc, Table 2",113
same,sc/I. Vent.,"[1]; ratio of ED50 sc/intraventricular, Table 2",24
same,ED50,[2]; [14],55 mg/kg
same,ED50,[2]; [15],0.98 mg/kg
same,Oxymorphone-Induced Straub Tail po/sc,[2]; Table 3,56
same,ED50,Rat Writhing; [16],2.1 mg/kg
same,ED50,Rat Writhing; [17],0.04 mg/kg
same,Rat Writhing po/sc,Rat Writhing,53
same,ED50,Rat Vocalization; [18],0.83 mg/kg
same,ED50,Rat Vocalization; [19],0.012 mg/kg
same,Rat Vocalization po/sc,Rat Vocalization,69
same,ED50,[3]; [20],22 mg/kg
same,ED50,[3]; [21],0.43 mg/kg
same,Morphine Antagonism Rat Tail Flick po/sc,[3],51
same,Percent Inhibition of Cough Response,"Cough Response; 0.1 mg/kg sc, 15 min",98%
same,Percent Inhibition of Cough Response,"Cough Response; 0.1 mg/kg sc, 30 min",96%
same,Percent Inhibition of Cough Response,"Cough Response; 0.1 mg/kg sc, 60 min",92%
same,Percent Inhibition of Cough Response,"Cough Response; 0.1 mg/kg sc, 120 min",84%
same,Percent Inhibition of Cough Response,"Cough Response; 0.1 mg/kg sc, 180 min",64%
same,Percent Inhibition of Cough Response,"Cough Response; 0.1 mg/kg sc, 240 min",41%
same,Percent Inhibition of Cough Response,"Cough Response; 0.1 mg/kg sc, 300 min",28%
same,ED50,Cough Response; [22],0.32 mg/kg
same,ED50,Cough Response; [23],0.01 mg/kg
CN1CC[C@]23c4c5ccc(O)c4O[C@H]2[C@@H](O)C=C[C@H]3[C@H]1C5 [Morphine SO4],ED50,[1]; [11],0.0032 mg/kg
same,ED50,[1]; [12],3.1 mg/kg
same,ED50,[1]; [13],0.26 mg/kg
same,Mouse Writhing po/sc,"[1]; mouse, in vivo",12
same,ED50,Rat Writhing; [16],1.6 mg/kg
same,ED50,Rat Writhing; [17],0.16 mg/kg
same,Rat Writhing po/sc,Rat Writhing,10
same,ED50,Rat Vocalization; [18],2.1 mg/kg
same,ED50,Rat Vocalization; [19],0.19 mg/kg
same,Rat Vocalization po/sc,Rat Vocalization,11
same,Oral antitussive ED50,"Cough Response; dog, in vivo, po",0.62 mg/kg
same,Antitussive ED50,"Cough Response; dog, in vivo, sc",0.04 mg/kg
"COc1ccc2c(c1)[C@]13CCN(CC4CCC4)[C@H](C2)[C@@H]1CCOC3 (racemic) [(±)-XIII, 17-Cyclobutylmethyl-3-methoxy-6-oxamorphinan]",ED50,[1]; [9],0.38 mg/kg
same,ED50,[2]; [10],~15 mg/kg
"Oc1ccc2c(c1)[C@]13CCN(CC4CCC4)[C@H](C2)[C@@H]1CCOC3 (racemic) [(±)-XIV, 17-Cyclobutylmethyl-3-hydroxy-6-oxamorphinan]",ED50,[1]; [9],0.015 mg/kg
same,ED50,[2]; [10],~6 mg/kg
